According to patent publication US20240101531A1, “PYRIDINAMINE DERIVATIVES AND THEIR USE AS POTASSIUM CHANNEL MODULATORS” (Xenon Pharmaceuticals Inc., priority 2022, published 2024):
Where a name gives a salt, the structure may show the parent alone.

molecular target: human KV7.2/KV7.3 (Homo sapiens (Human), UniProt O43525+O43526); test: Potassium flux assay (IPG-2 AM dye); assay type: cell-based; settings: TREX HEK 293 or HEK 293 cells expressing human KV7.2/KV7.3; arithmetic mean values
Summary of the method: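 HEK 293 or TREX HEK 293 cells stably expressing human KV7.2/KV7.3 (tetracycline-induced where needed), loaded with IPG-2 AM, then compound for 20 min at room temperature. Flux triggered by K challenge buffer (10 mM KCl, pH 7.4), read at 530/558 nm; EC50 from 16-point 2-fold series from 30 μM, normalised to DMSO and reference modulator.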

First: CC1(COc2ccc3c(Nc4ccc(Cl)nc4)nccc3c2)CC1 [Example 179, N-(6-chloropyridin-3-yl)-6-((1-methylcyclopropyl)methoxy)isoquinolin-1-amine]
Second: Clc1ccc(Nc2nccc3cc(OCC4CC4)ccc23)cn1 [Example 2, N-(6-chloropyridin-3-yl)-6-(cyclopropylmethoxy)isoquinolin-1-amine]
The EC50 of the first is higher: 1 to 10 µM for the first, less than 1 µM for the second. The second is the more potent here.

`COC(=O)C1COCCN1CCOc1ccc2c(Nc3ccc(Cl)nc3)nccc2c1` (centres unmarked) [Example 320, methyl 4-(2-((1-((6-chloropyridin-3-yl)amino)isoquinolin-6-yl)oxy)ethyl)morpholine-3-carboxylate] and `C[C@@H]1COCCN1CCOc1ccc2c(Nc3ccc(Cl)nc3)nccc2c1` [Example 322, (R)-N-(6-chloropyridin-3-yl)-6-(2-(3-methylmorpholino)ethoxy)isoquinolin-1-amine] fall in the same range of EC50: 1 to 10 µM for the first, 1 to 10 µM for the second.

`Clc1ccc(Nc2nccc3cc(OCc4cnoc4)ccc23)cn1` [Example 368, N-(6-chloropyridin-3-yl)-6-(isoxazol-4-ylmethoxy)isoquinolin-1-amine] and `Cn1ccc(COc2ccc3c(Nc4ccc(Cl)nc4)nccc3c2)n1` [Example 150, N-(6-chloropyridin-3-yl)-6-((1-methyl-1H-pyrazol-3-yl)methoxy)isoquinolin-1-amine] cannot be ordered by EC50: less than 1 µM for the first, less than 1 µM for the second.

`Cn1cc(CCOc2ccc3c(Nc4ccc(Cl)nc4)nccc3c2)cn1` [Example 99, N-(6-chloropyridin-3-yl)-6-(2-(1-methyl-1H-pyrazol-4-yl)ethoxy)isoquinolin-1-amine] and `CC(Cc1cnn(C)c1)Oc1ccc2c(Nc3ccc(Cl)nc3)nccc2c1` (centres unmarked) [Example 296, N-(6-chloropyridin-3-yl)-6-((1-(1-methyl-1H-pyrazol-4-yl)propan-2-yl)oxy)isoquinolin-1-amine] fall in the same range of EC50: 1 to 10 µM for the first, 1 to 10 µM for the second.

Compared with `Clc1ccc(Nc2nccc3cc(OCC4CC45CCC5)ccc23)cn1` (centres unmarked) [Example 332, N-(6-chloropyridin-3-yl)-6-(spiro[2.3]hexan-1-ylmethoxy)isoquinolin-1-amine], `Clc1ccc(Nc2nccc3cc(OCC4COC4)ccc23)cn1` [Example 223, N-(6-chloropyridin-3-yl)-6-(oxetan-3-ylmethoxy)isoquinolin-1-amine] is lower in EC50: 1 to 10 µM for the first, less than 1 µM for the second.

`CS(C)(=O)=Nc1ccc2c(Nc3ccc(Cl)nc3)nccc2c1` [Example 34, ((1-((6-chloropyridin-3-yl)amino)isoquinolin-6-yl)imino)dimethyl-λ^6-sulfanone] and `CN(C)C(=O)/C=C/c1ccc2c(Nc3ccc(Cl)nc3)nccc2c1` [Example 246, (E)-3-(1-((6-chloropyridin-3-yl)amino)isoquinolin-6-yl)-N,N-dimethylacrylamide] fall in the same range of EC50: 1 to 10 µM for the first, 1 to 10 µM for the second.

`Clc1ccc(Nc2nccc3cc(Cc4ccccn4)ccc23)cn1` [Example 426, N-(6-chloropyridin-3-yl)-6-(pyridin-2-ylmethyl)isoquinolin-1-amine] and `Clc1ccc(Nc2nccc3cc(CNc4cn[nH]c4)ccc23)cn1` [Example 248, 6-(((1H-pyrazol-4-yl)amino)methyl)-N-(6-chloropyridin-3-yl)isoquinolin-1-amine] fall in the same range of EC50: 1 to 10 µM for the first, 1 to 10 µM for the second.

Compared with `COC1CN(CCOc2ccc3c(Nc4ccc(Cl)nc4)nccc3c2)C1` [Example 72, N-(6-chloropyridin-3-yl)-6-(2-(3-methoxyazetidin-1-yl)ethoxy)isoquinolin-1-amine], `COCCOCCOc1ccc2c(Nc3ccc(Cl)nc3)nccc2c1` [Example 236, N-(6-chloropyridin-3-yl)-6-(2-(2-methoxyethoxy)ethoxy)isoquinolin-1-amine] is lower in EC50: 10 to 30 µM for the first, 1 to 10 µM for the second. The second is the more potent here.

`N#CC(F)(COc1ccc2c(Nc3cnc(Cl)nc3)nccc2c1)C1CC1` (centres unmarked) [Example 146, 3-((1-((2-chloropyrimidin-5-yl)amino)isoquinolin-6-yl)oxy)-2-cyclopropyl-2-fluoropropanenitrile] and `Clc1ncc(Nc2nccc3cc(OC[C@@H]4COCCO4)ccc23)cn1` [Example 383, (S)-6-((1,4-dioxan-2-yl)methoxy)-N-(2-chloropyrimidin-5-yl)isoquinolin-1-amine] cannot be ordered by EC50: less than 1 µM for the first, less than 1 µM for the second.

First: Clc1ccc(Nc2nccc3cc(O[C@H]4CCOC4)ccc23)cn1 [Example 298, (S)-N-(6-chloropyridin-3-yl)-6-((tetrahydrofuran-3-yl)oxy)isoquinolin-1-amine trifluoroacetate]
Second: Clc1ccc(Nc2nccc3cc(OCC4CCOC4)ccc23)cn1 (centres unmarked) [Example 415, N-(6-chloropyridin-3-yl)-6-((tetrahydrofuran-3-yl)methoxy)isoquinolin-1-amine]
The EC50 of the first is higher: 1 to 10 µM for the first, less than 1 µM for the second.

Compared with `CO[C@H]1CC[C@H](Oc2ccc3c(Nc4ccc(Cl)nc4)nccc3c2)CC1` [Example 105, N-(6-chloropyridin-3-yl)-6-(((1r,4r)-4-methoxycyclohexyl)oxy)isoquinolin-1-amine], `FC(F)CN1CCC(Oc2ccc3c(Nc4ccc(Cl)nc4)nccc3c2)CC1` [Example 315, N-(6-chloropyridin-3-yl)-6-((1-(2,2-difluoroethyl)piperidin-4-yl)oxy)isoquinolin-1-amine] is lower in EC50: 10 to 30 µM for the first, 1 to 10 µM for the second. The second is the more potent here.

First: CC(C)(C#N)COc1ccc2c(Nc3ccc(Cl)nc3)nccc2c1 [Example 78, 3-((1-((6-chloropyridin-3-yl)amino)isoquinolin-6-yl)oxy)-2,2-dimethylpropanenitrile]
Second: N#CC1(COc2ccc3c(Nc4ccc(Cl)nc4)nccc3c2)CCOC1 (stereo in doubt) [Example 126, (S)-3-(((1-((6-chloropyridin-3-yl)amino)isoquinolin-6-yl)oxy)methyl)tetrahydrofuran-3-carbonitrile]
The EC50 of the first is higher: 1 to 10 µM for the first, less than 1 µM for the second.

First: CC(Oc1ccc2c(Nc3ccc(Cl)nc3)nccc2c1)c1cn[nH]c1 (centres unmarked) [Example 335, 6-(1-(1H-pyrazol-4-yl)ethoxy)-N-(6-chloropyridin-3-yl)isoquinolin-1-amine]
Second: Cn1ccc(COc2ccc3c(Nc4cnc(Cl)nc4)nccc3c2)n1 [Example 203, N-(2-chloropyrimidin-5-yl)-6-((1-methyl-1H-pyrazol-3-yl)methoxy)isoquinolin-1-amine]
The EC50 of the first is higher: 1 to 10 µM for the first, less than 1 µM for the second.
